Assay: Stability study in basic medium (0.05M K2CO3 in methanol)
Type: physicochemical

For `CCCCN(CCCCO)c1ccc2nc3ccc(N(CCCC)CCCCO)cc3[s+]c2c1.[I-]` [Ra═Rc═butyl and Rb═Rd═butanol, bis(butylbutanolamino)phenothiazinium iodide], the “Stability after treatment in 0.05M K2CO3/MeOH” value (“Stability … in 0.05M K2CO3/MeOH” for short) (4 h) was 91% and the “Stability … in 0.05M K2CO3/MeOH” value (17 h) was 66%.

For `CCCCN(CCCC)c1ccc2nc3ccc(N(CCO)CCO)cc3[s+]c2c1.[I-]` [Ra═Rb═butyl and Rc═Rd═ethanol, (dibutylamino)(diethanolamino)phenothiazinium iodide], the “Stability … in 0.05M K2CO3/MeOH” value (4 h) was 73% and the “Stability … in 0.05M K2CO3/MeOH” value (17 h) was 25%.
